From US10604514B2, “6-(5-membered heteroaryl)isoquinolin-3-yl carboxamides and preparation and use thereof” (Samumed, LLC, priority 2017, dated 2020) come the findings set out here.

In one assay the target is GSK3β kinase (Homo sapiens (Human), UniProt P49841). In words: GSK3β kinase assay (Ser/Thr 09 peptide Z-lyte, FRET).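 Note: Coumarin/fluorescein emission ratio converted to percent phosphorylation against unphosphorylated (0%) and phosphorylated (100%) controls, 1 h compound incubation at room temperature, 11-point threefold dilutions from 10 µM, run in duplicate.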 It counts as biochemical. To be noted: method text calls the value IC50.
Assay [1] concerns Tau phosphorylation at Ser396 (pSer396), SH-SY5Y cells. In words: Tau phosphorylation at Ser396 (pSer396) in SH-SY5Y cells, ELISA/western blot.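 Note: cell lysates probed for reduced Tau pSer396 via ELISA (colorimetric) or western blot (chemiluminescence), both with one shared pSer396 antibody, EC50 for lowering phosphorylation.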 It counts as cell-based, human. To be noted: SH-SY5Y cells, overnight (16-18 h), read-out: pSer396 Tau EC50.
The next assay deals with DYRK1A kinase (Homo sapiens (Human), UniProt Q13627). As to the kind of experiment: DYRK1A kinase assay (Ser/Thr 18 peptide Z-lyte, FRET).
The test system of a further assay is IL-6. As to the kind of experiment: IL-6 inhibition in LPS-stimulated human peripheral blood mononuclear cells (HTRF). It counts as cell-based. To be noted: for EC50: IL-6, LPS-stimulated huPBMCs, HTRF; for inhibition at 10 µM: read-out: percent value in parentheses below EC50 >10. Summed up:
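Fresh human PBMCs (5000 cells/well, 1% FBS RPMI) preincubated with compound (10-point 1:3 series from 10 μM, 0.25% DMSO) 2 h at 37 °C, then stimulated with 50 ng/mL E. coli LPS for 22 h. IL-6 by HTRF 665/620 ratio; DMSO-normalized, EC50 from 4-parameter fit.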
(In general: In TR-FRET formats the signal depends on donor and acceptor labels being close together.)

The subject of assay [2] is SW480 colon carcinoma cells. As to the kind of experiment: Cell viability assay (CellTiter-Glo) in SW480 cells.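 For all read-outs here: SW480 cells stably carrying an Sp5-luciferase TCF/LEF reporter, luminescent ATP signal as viability measure, DMSO-treated cells as control.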 The assay is classed as cell-based, human. To be noted: for EC50: cell viability, SW480 cells, four days, CellTiter-Glo.
For assay [3], the system named is LL29 cells (primary human fibroblasts derived from IPF patients), α-smooth muscle actin. In words: Inhibition of fibrotic process: αSMA in TGF-β1-treated primary human fibroblasts from IPF patients (LL29 cells). It counts as cell-based. To be noted: for EC50: % αSMA-positive LL29 cells, TGF-β1 20 ng/mL, 4 days. Summed up:
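IPF-patient lung fibroblasts (LL29) were stimulated with TGF-β1 (20 ng/mL) in 1% FBS medium with compound (11-point 1:2 series, 0.1% DMSO) for 4 days at 37 °C. Fixed cells were immunostained for αSMA and imaged, excluding SYTOX-positive dead cells. The % αSMA-positive cells was normalized to TGF-β1/DMSO control wells.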

The test system of assay [4] is Wnt activity (Sp5-Luc reporter in SW480 colon carcinoma cells). As to the kind of experiment: Wnt activity screening assay (Sp5-Luc reporter gene assay). The assay is classed as cell-based, human. To be noted: for EC50: Sp5-Luc reporter, SW480 cells, 36 to 48 hours. Summed up:
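SW480 cells stably carrying an Sp5 promoter (eight TCF/LEF sites)-firefly luciferase reporter were plated in DMEM with 1% FBS and treated with a 10-point, 1:3 dilution series from 10 μM (0.1% DMSO) for 36 to 48 h at 37° C. Luminescence was normalized to DMSO controls, and EC50 came from four-parameter nonlinear regression.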

Where [5] appears, read: DYRK1A kinase, method text calls the value IC50.
Setting [6] is: Homo sapiens, SW480, read-out: percent inhibition at 10 μM.

Read-outs that look alike come from different tables or passages of the source. A value given as a limit tells only on which side of the number the result lay.

Sequence of GSK3β kinase (P49841 whole entry): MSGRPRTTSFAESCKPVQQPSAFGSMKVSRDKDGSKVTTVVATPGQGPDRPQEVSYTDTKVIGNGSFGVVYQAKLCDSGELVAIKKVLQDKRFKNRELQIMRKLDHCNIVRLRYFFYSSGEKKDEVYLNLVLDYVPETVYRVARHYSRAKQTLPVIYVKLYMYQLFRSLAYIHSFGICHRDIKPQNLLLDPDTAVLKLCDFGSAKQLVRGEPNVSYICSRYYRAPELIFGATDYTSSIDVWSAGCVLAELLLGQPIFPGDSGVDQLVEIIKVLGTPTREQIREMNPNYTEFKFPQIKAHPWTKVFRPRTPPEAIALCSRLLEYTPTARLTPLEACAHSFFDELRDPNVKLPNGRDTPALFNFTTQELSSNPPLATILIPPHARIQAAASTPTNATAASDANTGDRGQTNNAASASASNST
Experimental for DYRK1A kinase: Each compound was dissolved in DMSO as a 10 mM stock and used to prepare compound source plates.
This is a non-radioactive assay using fluorescence resonance energy transfer (FRET) between coumarin and fluorescein to detect kinase activity which is represented as a ratio of coumarin emission/fluorescein emission.
The mixture was allowed to incubate with the representative compounds for one hour at room temperature. All reactions were performed in duplicate. Unphosphorylated (“0% Control”) and phosphorylated (“100% control”) forms of Ser/Thr 18 served as control reactions. Additionally, an 11-point dose-response curve of Staurosporine (1 uM top) was run to serve as a positive compound control.
After incubation, Development Reagent A was diluted in Development Buffer then added to the reaction and allowed to further incubate for one hour at room temperature.
The percent phosphorylation was then calculated using the following formula: [1−((Em ratio×F100%)−C100%)/((C0%−C100%)+(Em ratio×(F100%−F0%)))]. Dose-response curves were generated and inhibitory concentration (IC50) values were calculated using non-linear regression curve fit in the Dotmatics' Studies Software (Bishops Stortford, UK).
Experimental for GSK3β kinase: Representative compounds were screened using the assay procedure for GSK30 kinase activity as described below.
Each compound is dissolved in DMSO as a 10 mM stock and used to prepare compound source plates. Serial dilution (1:3, 11-point dose-response curves from 10 M to 0.0003 μM) and compound transfer was performed using the ECHO 550 (Labcyte, Sunnyvale, Calif.) into 1536-well black-walled round bottom plates (Corning).
This is a non-radioactive assay using fluorescence resonance energy transfer (FRET) between coumarin and fluorescein to detect kinase activity which is represented as ratio of coumarin emission/fluorescein emission.
The mixture is allowed to incubate with the representative compounds for one hour at room temperature. All reactions were performed in duplicate. Unphosphorylated (“0% Control”) and phosphorylated (“100% control”) forms of Ser/Thr 18 serve as control reactions.
After incubation, diluted Development Buffer is added to the reaction and allowed to further incubate for one hour at room temperature.
The percent phosphorylation is then calculated using the following formula: [1−((Em ratio×F100%)−C100%)/((C0%−C100%)+(Em ratio×(F100%−F0%)))].
Dose-response curves are generated and inhibitory concentration (IC50) values are calculated using non-linear regression curve fit in the Dotmatics' Studies Software (Bishops Stortford, UK).

Turning to `[2H]c1c(NC(=O)C2CCN(C)CC2)ncc2ccc(-c3cnn(C)c3)cc12` [Compound 66, 1-Methyl-N-(6-(1-methyl-1H-pyrazol-4-yl)isoquinolin-3-yl-4-d)piperidine-4-carboxamide], the EC50 on GSK3β kinase worked out at 53 nM; in assay [1] (Homo sapiens), 168 nM; at DYRK1A kinase, 3 nM; in the assay on IL-6 (Homo sapiens, PBMC) it was 997 nM; in assay [2] (Homo sapiens, 96 h) it was 1220 nM; in assay [3] (Homo sapiens, Fibroblast, 96 h), 160 nM. In assay [4] (Homo sapiens), this molecule had an EC50 of 1190 nM.

In the case of `Cc1ncc(-c2ccc3cnc(NC(=O)N4CCC(N5CCOCC5)CC4)cc3c2)o1` [Compound 50, N-(6-(2-Methyloxazol-5-yl)isoquinolin-3-yl)-4-morpholinopiperidine-1-carboxamide], the EC50 was 218 nM on GSK3β kinase; 779 nM in assay [1] (Homo sapiens); 20 nM on DYRK1A kinase (setting [5]); 9200 nM with IL-6 (Homo sapiens, PBMC); above 10000 nM in assay [2] (Homo sapiens, 96 h); 1470 nM in assay [3] (Homo sapiens, Fibroblast, 96 h). In assay [4] (Homo sapiens), it took 28 nM to reach a half-maximal effect (EC50). In addition, the inhibition at 10 µM in assay [2] (setting [6]) was found to be 43%.

As to `COCCN[C@H]1CC[C@H](C(=O)Nc2cc3cc(-c4nnc(C)s4)ccc3cn2)CC1` [Compound 199, trans-4-((2-Methoxyethyl)amino)-N-(6-(5-methyl-1,3,4-thiadiazol-2-yl)isoquinolin-3-yl)cyclohexane-1-carboxamide], the EC50 is 17 nM at GSK3β kinase; 234 nM in assay [1] (Homo sapiens); 4 nM at DYRK1A kinase (setting [5]); 3860 nM in the assay with IL-6 (Homo sapiens, PBMC); 1640 nM in assay [2] (Homo sapiens, 96 h); 3200 nM in assay [3] (Homo sapiens, Fibroblast, 96 h). The EC50 in assay [4] (Homo sapiens) turned out to be 982 nM.

On to `[2H]C([2H])(C(=O)Nc1cc2cc(-c3cnc(C)n3C)ccc2cn1)c1ccc(F)cc1` [Compound 92, N-(6-(1,2-Dimethyl-1H-imidazol-5-yl)isoquinolin-3-yl)-2-(4-fluorophenyl) acetamide-2,2-d2], for which the EC50 is 66 nM on GSK3β kinase; 769 nM in assay [1] (Homo sapiens); 10 nM on DYRK1A kinase; 3180 nM with IL-6 (Homo sapiens, PBMC); 4080 nM in assay [2] (Homo sapiens, 96 h); 2710 nM in assay [3] (Homo sapiens, Fibroblast, 96 h). For the same molecule, in assay [4] (Homo sapiens), the 50% effective concentration (EC50) came to 3140 nM.

Turning to `[2H]c1c([2H])c([2H])c(C(=O)Nc2cc3cc(-c4cncn4C)ccc3cn2)c(F)c1[2H]` [Compound 80], the EC50 on GSK3β kinase is 2580 nM; in assay [1] (Homo sapiens), above 10000 nM; on DYRK1A kinase, 3 nM; in the assay with IL-6 (Homo sapiens, PBMC) it was 7640 nM; in assay [2] (Homo sapiens, 96 h), 1600 nM; in assay [3] (Homo sapiens, Fibroblast, 96 h), 2710 nM. Moreover, in assay [4] (Homo sapiens), a half-maximal response (EC50) required 743 nM.

For `[2H]c1c(NC(=O)C2CCN(C)CC2)ncc2ccc(-c3cnc(C)o3)cc12` [Compound 136, 1-Methyl-N-(6-(2-methyloxazol-5-yl)isoquinolin-3-yl-4-d)piperidine-4-carboxamide], the EC50 was 80 nM at GSK3β kinase; 309 nM in assay [1] (Homo sapiens); 6 nM on DYRK1A kinase; 463 nM in the assay with IL-6 (Homo sapiens, PBMC); 1120 nM in assay [2] (Homo sapiens, 96 h); 418 nM in assay [3] (Homo sapiens, Fibroblast, 96 h). The molecule also had an EC50 in assay [4] (Homo sapiens) of 2110 nM.

Take `Cc1ncc(-c2ccc3cnc(NC(=O)N4CCC(N(C)CC(F)F)CC4)cc3c2)o1` [Compound 52, 4-((2,2-Difluoroethyl)(methyl)amino)-N-(6-(2-methyloxazol-5-yl)isoquinolin-3-yl)piperidine-1-carboxamide]: the EC50 at GSK3β kinase is 156 nM; in assay [1] (Homo sapiens), 1100 nM; at DYRK1A kinase (setting [5]) it was 9 nM; with IL-6 (Homo sapiens, PBMC), 3700 nM; in assay [2] (Homo sapiens, 96 h), 3970 nM; in assay [3] (Homo sapiens, Fibroblast, 96 h) it was 1730 nM. The molecule also had an EC50 in assay [4] (Homo sapiens) of 923 nM.

`Cn1cc(-c2ccc3cnc(NC(=O)[C@H]4CC[C@H](N5CCOCC5)CC4)cc3c2)nn1` [Compound 100, trans-N-(6-(1-Methyl-1H-1,2,3-triazol-4-yl)isoquinolin-3-yl)-4-morpholinocyclohexane-1-carboxamide]: the EC50 on GSK3β kinase came out at 11 nM; in assay [1] (Homo sapiens) it was 113 nM; on DYRK1A kinase (setting [5]) it was 3 nM; with IL-6 (Homo sapiens, PBMC), 2020 nM; in assay [2] (Homo sapiens, 96 h) it was 1530 nM; in assay [3] (Homo sapiens, Fibroblast, 96 h), 64 nM. Besides, a half-maximal response in assay [4] (Homo sapiens) (EC50) required 720 nM.

Turning to `[2H]c1c([2H])c([2H])c(C(=O)Nc2cc3cc(-c4cnc(C)n4C)ccc3cn2)c(Cl)c1[2H]` [Compound 159, 2-Chloro-N-(6-(1,2-dimethyl-1H-imidazol-5-yl)isoquinolin-3-yl)benzamide-3,4,5,6-d4], the EC50 at GSK3β kinase is above 10000 nM; in assay [1] (Homo sapiens), above 10000 nM; on DYRK1A kinase it was 27 nM; with IL-6 (Homo sapiens, PBMC), above 10000 nM; in assay [2] (Homo sapiens, 96 h) it was 8000 nM; in assay [3] (Homo sapiens, Fibroblast, 96 h), above 10000 nM. For the same molecule, the EC50 in assay [4] (Homo sapiens) was found to be 4200 nM. The inhibition at 10 µM was 1.6% in the assay with IL-6 (Homo sapiens, PBMC) and 31.4% in assay [3] (Homo sapiens, Fibroblast, read-out: percent inhibition at 10 μM).

On to `Cc1ncc(-c2ccc3cnc(NC(=O)C4CCN(CC(C)(F)F)CC4)cc3c2)o1` [Compound 20, 1-(2,2-Difluoropropyl)-N-(6-(2-methyloxazol-5-yl)isoquinolin-3-yl) piperidine-4-carboxamide], for which the EC50 at GSK3β kinase is 41 nM; in assay [1], 524 nM; at DYRK1A kinase (setting [5]) it was 5 nM; in the assay with IL-6 it was above 10000 nM; in assay [2], 3070 nM; in assay [3], 480 nM. It took 2640 nM to reach a half-maximal effect in assay [4] (EC50). For the same molecule, the “percent inhibition of IL-6 at 10 µM” value in the assay with IL-6 is listed as “(13.4%)”.

In the case of `[2H]c1c([2H])c(C(=O)Nc2cc3cc(-c4cncn4C)ccc3cn2)c([2H])c([2H])c1OC` [Compound 89, 4-Methoxy-N-(6-(1-methyl-1H-imidazol-5-yl)isoquinolin-3-yl)benzamide-2,3,5,6-d4], the EC50 on GSK3β kinase was determined as 533 nM; in assay [1] (Homo sapiens), 594 nM; on DYRK1A kinase it was 2 nM; with IL-6 (Homo sapiens, PBMC) it was 1050 nM; in assay [2] (Homo sapiens, 96 h), 480 nM; in assay [3] (Homo sapiens, Fibroblast, 96 h), 190 nM. The same molecule gave an EC50 in assay [4] (Homo sapiens) of 155 nM.

Consider `CCCCN1CCC(C(=O)Nc2cc3cc(-c4cnn(C)c4)ccc3cn2)CC1` [Compound 169, 1-Butyl-N-(6-(1-methyl-1H-pyrazol-4-yl)isoquinolin-3-yl)piperidine-4-carboxamide], for which the EC50 on GSK3β kinase was 47 nM; in assay [1] (Homo sapiens), 154 nM; at DYRK1A kinase (setting [5]) it was 3 nM; in the assay on IL-6 (Homo sapiens, PBMC) it was 1020 nM; in assay [2] (Homo sapiens, 96 h) it was 1130 nM; in assay [3] (Homo sapiens, Fibroblast, 96 h), 148 nM. For the same molecule, the EC50 in assay [4] (Homo sapiens) came out at 2540 nM.

With `Cc1nnc(-c2cc(F)c3cnc(NC(=O)[C@H]4CC[C@H](N5CCOCC5)CC4)cc3c2)s1` [Compound 57, trans-N-(8-Fluoro-6-(5-methyl-1,3,4-thiadiazol-2-yl)isoquinolin-3-yl)-4-morpholinocyclohexane-1-carboxamide], the EC50 at GSK3β kinase was 16 nM; in assay [1] (Homo sapiens), 136 nM; on DYRK1A kinase (setting [5]) it was 9 nM; in the assay with IL-6 (Homo sapiens, PBMC) it was above 10000 nM; in assay [2] (Homo sapiens, 96 h), 4110 nM; in assay [3] (Homo sapiens, Fibroblast, 96 h) it was 1170 nM. The molecule further showed an EC50 in assay [4] (Homo sapiens) above 10000 nM. Moreover, the inhibition at 10 µM with IL-6 (Homo sapiens, PBMC) was 6.1%; in assay [4] (setting [6]) it was 40.1%.

Take `Cc1cn2c(n1)CN(C(=O)Nc1cc3cc(-c4cnc(C)o4)ccc3cn1)CC2` [Compound 59, 2-Methyl-N-(6-(2-methyloxazol-5-yl)isoquinolin-3-yl)-5,6-dihydroimidazo [1,2-a]pyrazine-7(8H)-carboxamide]: the EC50 at GSK3β kinase was 15 nM; in assay [1] (Homo sapiens), 35 nM; on DYRK1A kinase (setting [5]), 3 nM; in the assay on IL-6 (Homo sapiens, PBMC), 129 nM; in assay [2] (Homo sapiens, 96 h) it was 140 nM; in assay [3] (Homo sapiens, Fibroblast, 96 h), 297 nM. The molecule further yielded an EC50 in assay [4] (Homo sapiens) of 4100 nM.

As usually defined, the EC50 is the concentration needed to bring the measured effect to its halfway point.
